pIC50: −log10 of the molar value.
Tested on: 843126-344-R-J1-PDC complex spheroid viability
Experiment: Anticancer human tumor 843126-344-R-J1-PDC patient-derived melanoma cell line growth inhibition [POLQ]
Conditions: for pIC50: curve of first compound; for viability, T/C: stronger effect = lower value
How it was run: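 Growth inhibition in 3D: complex spheroids (tumor PDC, HUVEC, MSC) treated with POLQ inhibitor combinations; where Cmax unknown, highest tested concentration 10 microM, except SN-38 at 1 microM.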

[1] = second compound 0.0316 µM, first compound 0.00316 µM
[2] = second compound 0.0316 µM, first compound 0.01 µM
[3] = second compound 0.0316 µM, first compound 0.0316 µM
[4] = second compound 0.0316 µM, first compound 0.1 µM
[5] = second compound 0.1 µM, first compound 0.00316 µM
[6] = second compound 0.1 µM, first compound 0.01 µM
[7] = second compound 0.1 µM, first compound 0.0316 µM
[8] = second compound 0.1 µM, first compound 0.1 µM
[9] = second compound 0.316 µM, first compound 0.00316 µM
[10] = second compound 0.316 µM, first compound 0.01 µM
[11] = second compound 0.316 µM, first compound 0.0316 µM
[12] = second compound 0.316 µM, first compound 0.1 µM
[13] = second compound 1 µM, first compound 0.00316 µM
[14] = second compound 1 µM, first compound 0.01 µM
[15] = second compound 1 µM, first compound 0.0316 µM
[16] = second compound 1 µM, first compound 0.1 µM
[17] = second compound 3.16 µM, first compound 0.00316 µM
[18] = second compound 3.16 µM, first compound 0.01 µM
[19] = second compound 3.16 µM, first compound 0.0316 µM
[20] = second compound 3.16 µM, first compound 0.1 µM
[21] = second compound 10 µM, first compound 0.00316 µM
[22] = second compound 10 µM, first compound 0.01 µM
[23] = second compound 10 µM, first compound 0.0316 µM
[24] = second compound 10 µM, first compound 0.1 µM
[25] = second compound 0.0316 µM, first compound 0.316 µM
[26] = second compound 0.0316 µM, first compound 1 µM
[27] = second compound 0.0316 µM, first compound 3.16 µM
[28] = second compound 0.0316 µM, first compound 10 µM
[29] = second compound 0.1 µM, first compound 0.316 µM
[30] = second compound 0.1 µM, first compound 1 µM
[31] = second compound 0.1 µM, first compound 3.16 µM
[32] = second compound 0.1 µM, first compound 10 µM
[33] = second compound 0.316 µM, first compound 0.316 µM
[34] = second compound 0.316 µM, first compound 1 µM
[35] = second compound 0.316 µM, first compound 3.16 µM
[36] = second compound 0.316 µM, first compound 10 µM
[37] = second compound 1 µM, first compound 0.316 µM
[38] = second compound 1 µM, first compound 1 µM
[39] = second compound 1 µM, first compound 3.16 µM
[40] = second compound 1 µM, first compound 10 µM
[41] = second compound 3.16 µM, first compound 0.316 µM
[42] = second compound 3.16 µM, first compound 1 µM
[43] = second compound 3.16 µM, first compound 3.16 µM
[44] = second compound 3.16 µM, first compound 10 µM
[45] = second compound 10 µM, first compound 0.316 µM
[46] = second compound 10 µM, first compound 1 µM
[47] = second compound 10 µM, first compound 3.16 µM
[48] = second compound 10 µM, first compound 10 µM
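Wherever viability, T/C is given: spheroids exposed to drugs for seven days before readout.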

CC[C@@]1(O)C(=O)OCc2c1cc1n(c2=O)Cc2cc3c(CN(C)C)c(O)ccc3nc2-1 + Cc1cccc(N(C)C(=O)C2C(O)CCN2c2nc(C)cc(C(F)(F)F)c2C#N)c1
pIC50 (second compound 0.0316 µM): < 7.00
pIC50 (second compound 0.1 µM): < 7.00
pIC50 (second compound 0.316 µM): < 7.00
pIC50 (second compound 1 µM): < 7.00
pIC50 (second compound 3.16 µM): < 7.00
pIC50 (second compound 10 µM): 7.01
viability, T/C (second compound 0.0316 µM, first compound 0.000316 µM): 98%
viability, T/C (second compound 0.0316 µM, first compound 0.001 µM): 105%
viability, T/C [1]: 89.8%
viability, T/C [2]: 103%
viability, T/C [3]: 59.9%
viability, T/C [4]: 52.5%
viability, T/C (second compound 0.1 µM, first compound 0.000316 µM): 86%
viability, T/C (second compound 0.1 µM, first compound 0.001 µM): 92.9%
viability, T/C [5]: 110%
viability, T/C [6]: 80.9%
viability, T/C [7]: 67.1%
viability, T/C [8]: 59.7%
viability, T/C (second compound 0.316 µM, first compound 0.000316 µM): 106%
viability, T/C (second compound 0.316 µM, first compound 0.001 µM): 102%
viability, T/C [9]: 93.1%
viability, T/C [10]: 83.9%
viability, T/C [11]: 70.7%
viability, T/C [12]: 58.5%
viability, T/C (second compound 1 µM, first compound 0.000316 µM): 78.1%
viability, T/C (second compound 1 µM, first compound 0.001 µM): 113%
viability, T/C [13]: 89.3%
viability, T/C [14]: 90.3%
viability, T/C [15]: 74%
viability, T/C [16]: 52.8%
viability, T/C (second compound 3.16 µM, first compound 0.000316 µM): 101%
viability, T/C (second compound 3.16 µM, first compound 0.001 µM): 96.1%
viability, T/C [17]: 108%
viability, T/C [18]: 105%
viability, T/C [19]: 70%
viability, T/C [20]: 52.3%
viability, T/C (second compound 10 µM, first compound 0.000316 µM): 84.6%
viability, T/C (second compound 10 µM, first compound 0.001 µM): 83.9%
viability, T/C [21]: 74.6%
viability, T/C [22]: 87.8%
viability, T/C [23]: 66.6%
viability, T/C [24]: 49.6%

COc1cccc2c1C(=O)c1c(O)c3c(c(O)c1C2=O)CC(O)(C(=O)CO)CC3OC1CC(N)C(O)C(C)O1 (stereo not drawn) + Cc1cccc(N(C)C(=O)C2C(O)CCN2c2nc(C)cc(C(F)(F)F)c2C#N)c1
pIC50 (second compound 0.0316 µM): 6.75
pIC50 (second compound 0.1 µM): 6.61
pIC50 (second compound 0.316 µM): 6.77
pIC50 (second compound 1 µM): 6.69
pIC50 (second compound 3.16 µM): 6.74
pIC50 (second compound 10 µM): 6.82
viability, T/C [3]: 92.8%
viability, T/C [4]: 62.1%
viability, T/C [25]: 39.9%
viability, T/C [26]: 11%
viability, T/C [27]: 3.5%
viability, T/C [28]: 3.68%
viability, T/C [7]: 87.9%
viability, T/C [8]: 72.7%
viability, T/C [29]: 45.2%
viability, T/C [30]: 9.74%
viability, T/C [31]: 4.9%
viability, T/C [32]: 3.68%
viability, T/C [11]: 92.7%
viability, T/C [12]: 60.7%
viability, T/C [33]: 38.6%
viability, T/C [34]: 10.6%
viability, T/C [35]: 3.96%
viability, T/C [36]: 3.01%
viability, T/C [15]: 90.8%
viability, T/C [16]: 69.5%
viability, T/C [37]: 39.7%
viability, T/C [38]: 7.4%
viability, T/C [39]: 3.66%
viability, T/C [40]: 3.67%
viability, T/C [19]: 74.3%
viability, T/C [20]: 64%
viability, T/C [41]: 37.2%
viability, T/C [42]: 5.9%
viability, T/C [43]: 3.46%
viability, T/C [44]: 3.96%
viability, T/C [23]: 68.8%
viability, T/C [24]: 63.3%
viability, T/C [45]: 26.3%
viability, T/C [46]: 4.4%
viability, T/C [47]: 3.99%
viability, T/C [48]: 3.14%

COc1cccc(OCCCN)c1-c1cc(Nc2cnc(C#N)cn2)n[nH]1 + COC1C(OC(N)=O)C(O)C(Oc2ccc3c(O)c(NC(=O)c4ccc(O)c(CC=C(C)C)c4)c(=O)oc3c2C)OC1(C)C
pIC50 (second compound 0.0316 µM): 7.06
pIC50 (second compound 0.1 µM): 6.81
pIC50 (second compound 0.316 µM): 6.87
pIC50 (second compound 1 µM): 6.46
pIC50 (second compound 3.16 µM): 6.54
pIC50 (second compound 10 µM): 6.82
viability, T/C [1]: 78.6%
viability, T/C [2]: 85.6%
viability, T/C [3]: 77.7%
viability, T/C [4]: 45.8%
viability, T/C [25]: 46.3%
viability, T/C [26]: 31.8%
viability, T/C [5]: 93.3%
viability, T/C [6]: 81.8%
viability, T/C [7]: 73.2%
viability, T/C [8]: 52%
viability, T/C [29]: 44.1%
viability, T/C [30]: 34.7%
viability, T/C [9]: 79.9%
viability, T/C [10]: 76.8%
viability, T/C [11]: 65.3%
viability, T/C [12]: 54.9%
viability, T/C [33]: 39.8%
viability, T/C [34]: 38.6%
viability, T/C [13]: 96%
viability, T/C [14]: 76.9%
viability, T/C [15]: 76%
viability, T/C [16]: 64.7%
viability, T/C [37]: 52%
viability, T/C [38]: 36.6%
viability, T/C [17]: 88.6%
viability, T/C [18]: 85.2%
viability, T/C [19]: 65.3%
viability, T/C [20]: 68.2%
viability, T/C [41]: 49.4%
viability, T/C [42]: 31.8%
viability, T/C [21]: 72.7%
viability, T/C [22]: 76.2%
viability, T/C [23]: 70.2%
viability, T/C [24]: 55.5%
viability, T/C [45]: 40.8%
viability, T/C [46]: 37.2%

CC(C)n1c(=O)n(C)c2cnc3cc(F)c(-c4ccc(OCCCN5CCCCC5)nc4)cc3c21 + COC1C(OC(N)=O)C(O)C(Oc2ccc3c(O)c(NC(=O)c4ccc(O)c(CC=C(C)C)c4)c(=O)oc3c2C)OC1(C)C
pIC50 (second compound 0.0316 µM): < 5.00
pIC50 (second compound 0.1 µM): < 5.00
pIC50 (second compound 0.316 µM): < 5.00
pIC50 (second compound 1 µM): < 5.00
pIC50 (second compound 3.16 µM): < 5.00
pIC50 (second compound 10 µM): < 5.00
viability, T/C [3]: 79.6%
viability, T/C [4]: 85.9%
viability, T/C [25]: 94.7%
viability, T/C [26]: 86.4%
viability, T/C [27]: 77.2%
viability, T/C [28]: 70.5%
viability, T/C [7]: 81.1%
viability, T/C [8]: 69.3%
viability, T/C [29]: 85%
viability, T/C [30]: 94.8%
viability, T/C [31]: 74.8%
viability, T/C [32]: 76.1%
viability, T/C [11]: 90.8%
viability, T/C [12]: 76.2%
viability, T/C [33]: 79.8%
viability, T/C [34]: 91.1%
viability, T/C [35]: 70.3%
viability, T/C [36]: 67.8%
viability, T/C [15]: 95.5%
viability, T/C [16]: 82.4%
viability, T/C [37]: 76.3%
viability, T/C [38]: 78%
viability, T/C [39]: 87.6%
viability, T/C [40]: 69.6%
viability, T/C [19]: 68.8%
viability, T/C [20]: 82.8%
viability, T/C [41]: 80.4%
viability, T/C [42]: 101%
viability, T/C [43]: 77.3%
viability, T/C [44]: 66.4%
viability, T/C [23]: 79%
viability, T/C [24]: 80.4%
viability, T/C [45]: 81.7%
viability, T/C [46]: 79.8%
viability, T/C [47]: 75.8%
viability, T/C [48]: 68.3%
